# Values quoted from earlier work in paper PMC7482441 (Pharmacological Research, 2020).
# What was measured:
# mdx mice = settings: cited from earlier work
# BIO 14.6 hamster = settings: cited from earlier work
compound,measurement,setting,value
CC(C)c1ccc(C(=O)NC(=N)N)cc1S(C)(=O)=O [Cariporide],"creatine kinase (CK) levels, inflammation, fibrosis and histological skeletal muscle damage",mdx mice,markedly reduced
same,intracellular Ca2+ levels and Na+ influx,BIO 14.6 hamster,normalised
